# Measurements: patent US20170037007A1, “SUBSTITUTED N-(2-(AMINO)-2OXOETHYL)BENZAMIDE INHIBITORS OF AUTOTAXIN AND THEIR PREPARATION AND USE IN THE TREATMENT OF LPA-DEPENDENT OR LPA-MEDIATED DISEASES” (X-Rx, Inc., priority 2014, published 2017)
# Biological target: T1, Autotaxin (Homo sapiens, UniProt Q13822)
# T1 construct: purchased X-Chem
# Assay: Autotaxin LPC Cascade Assay
# Type: biochemical
# Conditions: 5 nM autotaxin, 100 μM LPC, choline oxidase/HRP/Ampliflu Red fluorescence readout; read-out: IC50 ATX activity values, IC50
# Procedure: Autotaxin LPC Cascade Assay
# HA130 and Test Compounds:
# Highest final concentration is […] for HA130 (Echelon, B-0701) and 30 μM for test compounds. Prepare a 1 mM stock of HA130 and a 3 mM stock of each compound in 100% DMSO. Perform a 1:3 serial dilution in DMSO (transfer 5 μl of compound to 10 μl of DMSO). Add 240 μl of buffer to generate a top working concentration of 40 µM (HA130) and 120 µM (test compound) in 4% DMSO.
# Ampliflu Red—Prepare a stock of 5 mM from 100 mM in 100% DMSO. Further dilute to a working concentration of 400 μM in buffer (8% DMSO).
# Together with compound this yields a 2% DMSO final concentration.
# Choline Oxidase/HRP—0.8 U/ml CO and 8 U/ml HRP.
# Add 5 μl of ATX and 5 μl of compound in a 384 well plate (Corning 3676). Incubate for 10 mins at RT. Add 5 μl of LPC and incubate for 1 hr on the plate shaker. Prepare the CO/HRP and AR prior to use. Add 2.5 μl of CO/HRP and follow with 2.5 μl AR. Note order of addition, CO/HRP mix before AR. Read fluorescence intensity (λex/λem: 530/590 nm) kinetically for 30 min at RT on the Tecan M1000.
row,SMILES,IC50
1,"Cc1cccc(C(=O)N[C@@H](C(=O)N2CCC(C)(Nc3ccc(S(C)(=O)=O)cc3)CC2)C(C)C)c1F [Example 3, (R)-2-Fluoro-3-methyl-N-(3-methyl-1-(4-methyl-4-(4-(methylsulfonyl)phenylamino)piperidin-1-yl)-1-oxobutan-2-yl)benzamide]",0.5 to 5 µM
2,"CC(C)[C@H](NC(=O)c1cccc(OC(F)(F)F)c1)C(=O)N1CCC(C)(NCc2ccc(S(C)(=O)=O)cc2)CC1 [Example 42, (S)—N-(3-Methyl-1-(4-methyl-4-((4-(methylsulfonyl)benzyl)amino)piperidin-1-yl)-1-oxobutan-2-yl)-3-(trifluoromethoxy)benzamide]",0.5 to 5 µM
3,"CC(C)[C@@H](NC(=O)c1cccc(OC(F)(F)F)c1)C(=O)N1CCC(C)(Nc2ccc(C(=O)O)cc2)CC1 [Example 9, (R)-4-((4-Methyl-1-(3-methyl-2-(3-(trifluoromethoxy)benzamido)butanoyl)piperidin-4-yl)amino)benzoic acid]",0.1 to 0.5 µM
4,"CC(=O)Nc1ccc(N(C)C2(C)CCN(C(=O)[C@H](NC(=O)c3cc(C(F)(F)F)ccc3F)C(C)C)CC2)cc1 [Example 19, (R)—N-(1-(4-(4-Acetamidophenyl(methyl)amino)-4-methylpiperidin-1-yl)-3-methyl-1-oxobutan-2-yl)-2-fluoro-5-(trifluoromethyl)benzamide]",0.1 to 0.5 µM
5,"CC(C)[C@@H](NC(=O)c1cc(C(F)(F)F)ccc1F)C(=O)N1CCC(Nc2ccc(S(C)(=O)=O)cc2)CC1 [Example 22, (R)-2-Fluoro-N-(3-methyl-1-(4-(4-(methylsulfonyl)phenylamino)piperidin-1-yl)-1-oxobutan-2-yl)-5-(trifluoromethyl)benzamide]",≥ 10 µM
6,"CC(C)[C@@H](NC(=O)c1cc(OC(F)(F)F)ccc1F)C(=O)N1CCC(C)(NCc2ccc(S(C)(=O)=O)cc2)CC1 [Example 39, (R)-2-Fluoro-N-(3-methyl-1-(4-methyl-4-((4-(methylsulfonyl)benzyl)amino)piperidin-1-yl)-1-oxobutan-2-yl)-5-(trifluoromethoxy)benzamide]",0.01 to 0.1 µM
7,"CC(C)[C@@H](NC(=O)c1cc(C(F)(F)F)ccc1F)C(=O)N1CCC(C)(Nc2ccc(C(=O)O)cc2)CC1 [Example 21, (R)-4-(1-(2-(2-Fluoro-5-(trifluoromethyl)benzamido)-3-methylbutanoyl)-4-methylpiperidin-4-ylamino)benzoic acid]",0.1 to 0.5 µM
8,"CCc1cc(C(=O)N[C@@H](C(=O)N2CCC(C)(Nc3ccc(S(C)(=O)=O)cc3)CC2)C(C)C)c(F)cc1C [Example 34, (R)-5-Ethyl-2-fluoro-4-methyl-N-(3-methyl-1-(4-methyl-4-(4-(methylsulfonyl)phenylamino)piperidin-1-yl)-1-oxobutan-2-yl)benzamide]",0.1 to 0.5 µM
9,"Cc1cccc(C(=O)N[C@@H](C(=O)N2CCC(C)(Nc3ccc(C#N)cc3)CC2)C(C)C)c1F [Example 1, (R)—N-(1-(4-(4-Cyanophenylamino)-4-methylpiperidin-1-yl)-3-methyl-1-oxobutan-2-yl)-2-fluoro-3-methylbenzamide]",0.5 to 5 µM
10,"CC(C)[C@@H](NC(=O)c1cc(C(F)(F)F)ccc1F)C(=O)N1CCC(Nc2ccc3[nH]ncc3c2)CC1 [Example 23, (R)—N-(1-(4-(1H-Indazol-5-ylamino)piperidin-1-yl)-3-methyl-1-oxobutan-2-yl)-2-fluoro-5-(trifluoromethyl)benzamide]",5 to 10 µM
11,"CNC(=O)C1(Oc2ccccc2)CCN(C(=O)[C@H](NC(=O)c2cccc(C)c2F)C(C)C)CC1 [Example 14, (R)-1-(2-(2-Fluoro-3-methylbenzamido)-3-methylbutanoyl)-N-methyl-4-phenoxypiperidine-4-carboxamide]",0.5 to 5 µM
12,"CCc1ccc(F)c(C(=O)N[C@@H](C(=O)N2CCC(C)(Nc3ccc(CS(C)(=O)=O)cc3)CC2)C(C)C)c1 [Example 26, (R)-5-Ethyl-2-fluoro-N-(3-methyl-1-(4-methyl-4-(4-(methylsulfonylmethyl)phenylamino)piperidin-1-yl)-1-oxobutan-2-yl)benzamide]",0.01 to 0.1 µM
13,"CC(C)Cc1ccc(F)c(C(=O)N[C@@H](C(=O)N2CCC(C)(Nc3ccc(S(C)(=O)=O)cc3)CC2)C(C)C)c1 [Example 31, (R)-2-Fluoro-5-isobutyl-N-(3-methyl-1-(4-methyl-4-(4-(methylsulfonyl)phenylamino)piperidin-1-yl)-1-oxobutan-2-yl)benzamide]",0.01 to 0.1 µM
14,"CC1(Nc2ccc(S(C)(=O)=O)cc2)CCN(C(=O)[C@H](NC(=O)c2cc(OC(F)(F)F)ccc2F)C2CC2)CC1 [Example 13, (R)—N-(1-Cyclopropyl-2-(4-methyl-4-((4-(methylsulfonyl)phenyl)amino)piperidin-1-yl)-2-oxoethyl)-2-fluoro-5-(trifluoromethoxy)benzamide]",0.1 to 0.5 µM
15,"COc1ccc(NC2(C)CCN(C(=O)[C@H](NC(=O)c3cccc(OC(F)(F)F)c3)C(C)C)CC2)cc1 [Example 8, (R)—N-(1-(4-((4-Methoxyphenyl)amino)-4-methylpiperidin-1-yl)-3-methyl-1-oxobutan-2-yl)-3-(trifluoromethoxy)benzamide]",0.1 to 0.5 µM
16,"Cc1cccc(C(=O)N[C@@H](C(=O)N2CCC(C)(N(C)c3ccccc3)CC2)C(C)C)c1 [Example 20, (R)-3-Methyl-N-(3-methyl-1-(4-methyl-4-(methyl(phenyl)amino)piperidin-1-yl)-1-oxobutan-2-yl)benzamide]",0.5 to 5 µM
17,"CCc1ccc(F)c(C(=O)N[C@@H](C(=O)N2CCC(C)(CNc3ccc(S(C)(=O)=O)cc3)CC2)C(C)C)c1 [Example 35, (R)-5-Ethyl-2-fluoro-N-(3-methyl-1-(4-methyl-4-((4-(methylsulfonyl)phenylamino)methyl)piperidin-1-yl)-1-oxobutan-2-yl)benzamide]",0.1 to 0.5 µM
18,"Cc1cccc(C(=O)N[C@@H](C(=O)N2CCC(C)(Nc3cccc(C#N)c3)CC2)C(C)C)c1F [Example 2, (R)—N-(1-(4-(3-Cyanophenylamino)-4-methylpiperidin-1-yl)-3-methyl-1-oxobutan-2-yl)-2-fluoro-3-methylbenzamide]",5 to 10 µM
19,"CC1CCc2cc(F)c(C(=O)N[C@@H](C(=O)N3CCC(C)(Nc4ccc(S(C)(=O)=O)cc4)CC3)C(C)C)cc21 (stereo partly drawn) [Example 25, 6-Fluoro-3-methyl-N—((R)-3-methyl-1-(4-methyl-4-(4-(methylsulfonyl)phenylamino)piperidin-1-yl)-1-oxobutan-2-yl)-2,3-dihydro-1H-indene-5-carboxamide]",0.1 to 0.5 µM
20,"COc1ccc(CNC2(C)CCN(C(=O)[C@H](NC(=O)c3cc(OC(F)(F)F)ccc3F)C(C)C)CC2)cc1 [Example 40, (R)-2-Fluoro-N-(1-(4-((4-methoxybenzyl)amino)-4-methylpiperidin-1-yl)-3-methyl-1-oxobutan-2-yl)-5-(trifluoromethoxy)benzamide]",0.1 to 0.5 µM
21,"CC(C)[C@@H](NC(=O)c1cc(Cc2ccccc2)ccc1F)C(=O)N1CCC(C)(Nc2ccc(S(C)(=O)=O)cc2)CC1 [Example 30, (R)-5-Benzyl-2-fluoro-N-(3-methyl-1-(4-methyl-4-(4-(methylsulfonyl)phenylamino)piperidin-1-yl)-1-oxobutan-2-yl)benzamide]",0.5 to 5 µM
22,"COc1ccc(F)c(C(=O)N[C@@H](C(=O)N2CCC(C)(Nc3ccc(S(C)(=O)=O)cc3)CC2)C(C)C)c1 [Example 5, (R)-2-Fluoro-5-methoxy-N-(3-methyl-1-(4-methyl-4-(4-(methylsulfonyl)phenylamino)piperidin-1-yl)-1-oxobutan-2-yl)benzamide]",0.5 to 5 µM
23,"CC(C)[C@@H](NC(=O)c1cccc(OC(F)(F)F)c1)C(=O)N1CCC(C)(NC(=O)c2ccc(S(C)(=O)=O)cc2)CC1 [Example 38, (R)—N-(3-Methyl-1-(4-methyl-4-(4-(methylsulfonyl)benzamido)piperidin-1-yl)-1-oxobutan-2-yl)-3-(trifluoromethoxy)benzamide]",0.5 to 5 µM
24,"CCc1ccc(F)c(C(=O)N[C@@H](C(=O)N2CCC(Oc3ccc(S(C)(=O)=O)cc3)(C(=O)NC)CC2)C(C)C)c1 [Example 15, (R)-1-(2-(5-Ethyl-2-fluorobenzamido)-3-methylbutanoyl)-N-methyl-4-(4-(methylsulfonyl)phenoxy)piperidine-4-carboxamide]",0.5 to 5 µM
25,"CCc1ccc(F)c(C(=O)N[C@@H](C(=O)N2CCC(C)(Nc3ccc(S(C)(=O)=O)cc3)CC2)C(C)C)c1 [Example 4, (R)-5-Ethyl-2-fluoro-N-(3-methyl-1-(4-methyl-4-(4-(methylsulfonyl)phenylamino)piperidin-1-yl)-1-oxobutan-2-yl)benzamide]",0.01 to 0.1 µM
26,"CCc1ccc(F)c(C(=O)N[C@@H](C(=O)N2CCC(C#N)(Nc3ccc(S(C)(=O)=O)cc3)CC2)C(C)C)c1 [Example 18, (R)—N-(1-(4-Cyano-4-(4-(methylsulfonyl)phenylamino)piperidin-1-yl)-3-methyl-1-oxobutan-2-yl)-5-ethyl-2-fluorobenzamide]",0.5 to 5 µM
27,"CC(C)c1ccc(F)c(C(=O)N[C@@H](C(=O)N2CCC(C)(Nc3ccc(S(C)(=O)=O)cc3)CC2)C(C)C)c1 [Example 36, (R)-2-Fluoro-5-isopropyl-N-(3-methyl-1-(4-methyl-4-(4-(methylsulfonyl)phenylamino)piperidin-1-yl)-1-oxobutan-2-yl)benzamide]",0.01 to 0.1 µM
